The source of these data is patent US20160046618A1, “Cyclopropyl Fused Thiazin-2-Amine Compounds as Beta-Secretase Inhibitors and Methods of Use” (AMGEN INC., priority 2014, published 2016).

Some results are limits rather than exact numbers.

In general, IC50 refers to the concentration that inhibits the measured activity by half.

One assay has as its target Recombinant Cat D (Homo sapiens (Human), UniProt P07339). Description: In vitro enzymatic Cathepsin D (Cat D) FRET assay. Type of assay: biochemical. The following applies: read-out: IC50 IP (μM) CatD. A digest of the protocol:
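Cleavage of a 20 nM fluorophore/quencher peptide by CHO-expressed recombinant Cat D proceeded for one hour at pH 3.5 (0.05 M citrate, 5 mM CHAPS, 10% DMSO final). Tris addition neutralized the pH to end the reaction. Fluorescence was then measured (ex 500 nm/em 580 nm).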

Assay [1] has as its system Aβ40 in conditioned medium of cells stably expressing Amyloid Precursor Protein (APP). The experiment in a line: In vitro BACE-1 cell-based assay (Aβ40 sandwich ELISA). The following applies: read-out: IC50 IP (μM) BACE1 cell. Summed up:
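APP-expressing cells treated 24 h at 37 °C with compound in 10-point dose response (top 100 μM or 10 μM, 0.1% DMSO final). Secreted Aβ40 in conditioned medium quantified by sandwich ELISA (pAb40 capture, biotinylated 6E10 detection, time-resolved europium fluorescence); IC50 from percent inhibition versus concentration.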

A further assay deals with human recombinant BACE2 (Homo sapiens (Human), UniProt Q9Y5Z0). Description: In vitro enzymatic BACE2 FRET assay. The format is biochemical. The following applies: read-out: IC50 IP (μM) BACE2 enzyme. A digest of the protocol:
(§1)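 Protease purified by Ni-NTA chromatography; start with FRET substrate (50 nM); incubate 1 h; quench with Tris to neutral pH; read fluorescence ex 488 / em 590 nm.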

For a further assay, the target named is human recombinant BACE1 (Homo sapiens (Human), UniProt P56817). Description: In vitro enzymatic BACE1 FRET assay. Type of assay: biochemical. The following applies: read-out: IC50 IP (μM) BACE1 enzyme. Summed up:
as §1

human recombinant BACE1, sequence (P56817 46-501): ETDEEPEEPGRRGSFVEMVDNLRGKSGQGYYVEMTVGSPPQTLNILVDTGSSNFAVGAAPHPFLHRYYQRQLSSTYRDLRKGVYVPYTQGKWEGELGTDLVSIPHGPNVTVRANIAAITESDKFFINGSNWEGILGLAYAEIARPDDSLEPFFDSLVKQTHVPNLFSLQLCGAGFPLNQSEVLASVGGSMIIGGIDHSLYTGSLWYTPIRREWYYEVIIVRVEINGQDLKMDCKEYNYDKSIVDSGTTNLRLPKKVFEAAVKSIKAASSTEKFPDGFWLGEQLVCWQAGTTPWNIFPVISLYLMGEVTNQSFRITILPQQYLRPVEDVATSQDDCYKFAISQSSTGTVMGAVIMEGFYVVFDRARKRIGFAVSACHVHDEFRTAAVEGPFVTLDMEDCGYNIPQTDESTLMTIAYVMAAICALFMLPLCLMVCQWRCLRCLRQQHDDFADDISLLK
human recombinant BACE2, sequence (Q9Y5Z0 63-518): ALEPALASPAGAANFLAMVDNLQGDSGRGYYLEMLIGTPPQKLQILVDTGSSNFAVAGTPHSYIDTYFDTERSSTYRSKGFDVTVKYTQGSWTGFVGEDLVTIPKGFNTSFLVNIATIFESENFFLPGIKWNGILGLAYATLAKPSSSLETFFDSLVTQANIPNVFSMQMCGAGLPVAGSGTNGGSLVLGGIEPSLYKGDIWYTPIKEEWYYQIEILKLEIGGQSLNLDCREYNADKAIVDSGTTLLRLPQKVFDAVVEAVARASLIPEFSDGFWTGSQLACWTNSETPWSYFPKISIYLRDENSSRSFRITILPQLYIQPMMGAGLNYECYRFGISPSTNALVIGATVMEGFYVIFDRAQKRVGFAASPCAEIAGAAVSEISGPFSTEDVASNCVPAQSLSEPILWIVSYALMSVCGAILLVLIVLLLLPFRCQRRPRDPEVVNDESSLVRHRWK
Recombinant Cat D, sequence (P07339 65-412): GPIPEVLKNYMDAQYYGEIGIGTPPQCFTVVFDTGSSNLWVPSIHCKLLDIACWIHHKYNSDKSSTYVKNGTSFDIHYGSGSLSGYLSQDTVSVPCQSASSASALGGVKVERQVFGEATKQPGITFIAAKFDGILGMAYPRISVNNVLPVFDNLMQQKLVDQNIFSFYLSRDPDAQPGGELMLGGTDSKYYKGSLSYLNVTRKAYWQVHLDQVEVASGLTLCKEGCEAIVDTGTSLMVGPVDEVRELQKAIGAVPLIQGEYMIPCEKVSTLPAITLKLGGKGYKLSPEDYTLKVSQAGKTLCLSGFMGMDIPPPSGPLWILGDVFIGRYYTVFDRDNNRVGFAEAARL

`N#CC[C@]12C[C@H]1[C@@](CF)(c1cc(NC(=O)c3ccc(Cl)cn3)ccc1F)N=C(N)S2` [Example 718, N-(3-((1R,5S,6S)-3-amino-1-(cyanomethyl)-5-(fluoromethyl)-2-thia-4-azabicyclo[4.1.0]hept-3-en-5-yl)-4-fluorophenyl)-5-chloro-2-pyridinecarboxamide]: the IC50 at Recombinant Cat D amounted to 921 µM; in assay [1], 0.04 µM; at human recombinant BACE2 it was 0.00131 µM; at human recombinant BACE1, 0.00367 µM.

For the compound `N#CC[C@]12C[C@H]1[C@@](CF)(c1cc(Nc3nccc4cc(C#N)cnc34)ccc1F)N=C(N)S2` [Example 719, 8-((3-((1R,5S,6S)-3-amino-1-(cyanomethyl)-5-(fluoromethyl)-2-thia-4-azabicyclo[4.1.0]hept-3-en-5-yl)-4-fluorophenyl)amino)-1,7-naphthyridine-3-carbonitrile], the IC50 at Recombinant Cat D amounted to 1490 µM; in assay [1] it was 0.0138 µM; at human recombinant BACE2 it was 0.00397 µM; on human recombinant BACE1 it was 0.00442 µM.

With `C#CCOc1cnc2c(Nc3ccc(F)c([C@@]4(CF)N=C(N)S[C@@]5(CC#N)C[C@H]54)c3)nccc2n1` [Example 720, ((1R,5S,6S)-3-amino-5-(fluoromethyl)-5-(2-fluoro-5-((2-(2-propyn-1-yloxy)pyrido[3,4-b]pyrazin-5-yl)amino)phenyl)-2-thia-4-azabicyclo[4.1.0]hept-3-en-1-yl)acetonitrile], the IC50 is 648 µM on Recombinant Cat D, 0.00151 µM in assay [1], 0.0273 µM on human recombinant BACE2 and 0.000935 µM on human recombinant BACE1.

Take `N#CC[C@]12C[C@H]1[C@@](CF)(c1cc(Nc3nccc4nc(OCc5ncco5)cnc34)ccc1F)N=C(N)S2` [Example 721, ((1R,5S,6S)-3-amino-5-(fluoromethyl)-5-(2-fluoro-5-((2-(1,3-oxazol-2-ylmethoxy)pyrido[3,4-b]pyrazin-5-yl)amino)phenyl)-2-thia-4-azabicyclo[4.1.0]hept-3-en-1-yl)acetonitrile]: the IC50 at Recombinant Cat D was 2130 µM; in assay [1], 0.00474 µM; on human recombinant BACE2 it was 0.0677 µM; at human recombinant BACE1 it was 0.00162 µM.

Turning to `NC1=N[C@](CF)(c2cc(NC(=O)c3ccc(Cl)cn3)ccc2F)[C@@H]2C[C@]2(Cn2ccnn2)S1` [Example 722, N-(3-((1S,5S,6S)-3-amino-5-(fluoromethyl)-1-(1H-1,2,3-triazol-1-ylmethyl)-2-thia-4-azabicyclo[4.1.0]hept-3-en-5-yl)-4-fluorophenyl)-5-chloro-2-pyridinecarboxamide], the IC50 at Recombinant Cat D is 684 µM; in assay [1], 0.0209 µM; at human recombinant BACE2, less than 0.00203 µM; at human recombinant BACE1, 0.0118 µM.

In the case of `N#CCC[C@]12C[C@H]1[C@@](CF)(c1cc(NC(=O)c3ccc(Cl)cn3)ccc1F)N=C(N)S2` [Example 723, N-(3-((1S,5S,6S)-3-amino-1-(2-cyanoethyl)-5-(fluoromethyl)-2-thia-4-azabicyclo[4.1.0]hept-3-en-5-yl)-4-fluorophenyl)-5-chloro-2-pyridinecarboxamide], the IC50 is 282 µM at Recombinant Cat D, 0.00431 µM in assay [1], less than 0.00203 µM on human recombinant BACE2 and 0.00169 µM on human recombinant BACE1.

Take `C#CCOc1cnc2c(Nc3ccc(F)c([C@@]4(CF)N=C(N)S[C@@]5(Cn6cc(C)nn6)C[C@H]54)c3)nccc2n1` [Example 724, N-(3-((1S,5S,6S)-3-amino-5-(fluoromethyl)-1-((4-methyl-1H-1,2,3-triazol-1-yl)methyl)-2-thia-4-azabicyclo[4.1.0]hept-3-en-5-yl)-4-fluorophenyl)-2-(2-propyn-1-yloxy)pyrido[3,4-b]pyrazin-5-amine]: the IC50 on Recombinant Cat D worked out at 1080 µM; in assay [1] it was 0.00712 µM; at human recombinant BACE2, 0.0746 µM; on human recombinant BACE1, 0.00208 µM.

`Cc1cnnn1C[C@]12C[C@H]1[C@@](CF)(c1cc(NC(=O)c3ccc(Cl)cn3)ccc1F)N=C(N)S2` [Example 725, N-(3-((1S,5S,6S)-3-amino-5-(fluoromethyl)-1-((5-methyl-1H-1,2,3-triazol-1-yl)methyl)-2-thia-4-azabicyclo[4.1.0]hept-3-en-5-yl)-4-fluorophenyl)-5-chloro-2-pyridinecarboxamide]: the IC50 on Recombinant Cat D is 1160 µM; in assay [1], 0.0148 µM; at human recombinant BACE2 it was 0.00251 µM; on human recombinant BACE1 it was 0.00565 µM.

In the case of `COC[C@]12C[C@H]1[C@@](C)(c1cc(Nc3nccc4cc(OCc5cnco5)cnc34)cc(F)c1F)N=C(N)S2` [Example 726, N-(3-((1S,5S,6S)-3-amino-1-(methoxymethyl)-5-methyl-2-thia-4-azabicyclo[4.1.0]hept-3-en-5-yl)-4,5-difluorophenyl)-3-(1,3-oxazol-5-ylmethoxy)-1,7-naphthyridin-8-amine], the IC50 was more than 400 µM at Recombinant Cat D, 0.406 µM in assay [1], 0.641 µM at human recombinant BACE2 and 0.179 µM on human recombinant BACE1.

Consider `COC[C@]12C[C@H]1[C@@](C)(c1cc(Nc3nccc4cc(OCC#N)cnc34)cc(F)c1F)N=C(N)S2` [Example 729, ((8-((3-((1S,5S,6S)-3-amino-1-(methoxymethyl)-5-methyl-2-thia-4-azabicyclo[4.1.0]hept-3-en-5-yl)-4,5-difluorophenyl)amino)-1,7-naphthyridin-3-yl)oxy)acetonitrile], for which the IC50 at Recombinant Cat D is 856 µM; in assay [1] it was 0.0457 µM; on human recombinant BACE2, 0.385 µM; on human recombinant BACE1, 0.0282 µM.

With `COC[C@]12C[C@H]1[C@@](C)(c1cc(Nc3nccc4cc(OCc5ncon5)cnc34)cc(F)c1F)N=C(N)S2` [Example 730, N-(3-((1S,5S,6S)-3-amino-1-(methoxymethyl)-5-methyl-2-thia-4-azabicyclo[4.1.0]hept-3-en-5-yl)-4,5-difluorophenyl)-3-(1,2,4-oxadiazol-3-ylmethoxy)-1,7-naphthyridin-8-amine], the IC50 on Recombinant Cat D stood at 1380 µM; in assay [1], 0.0759 µM; on human recombinant BACE2 it was 1.03 µM; on human recombinant BACE1 it was 0.0157 µM.

As for `COC[C@]12C[C@H]1[C@@](C)(c1cc(Nc3nccc4cc(OCC(F)(F)C(F)F)cnc34)cc(F)c1F)N=C(N)S2` [Example 731, N-(3-((1S,5S,6S)-3-amino-1-(methoxymethyl)-5-methyl-2-thia-4-azabicyclo[4.1.0]hept-3-en-5-yl)-4,5-difluorophenyl)-3-(2,2,3,3-tetrafluoropropoxy)-1,7-naphthyridin-8-amine], the IC50 on Recombinant Cat D came to 1100 µM; in assay [1] it was 1.3 µM; on human recombinant BACE2, 3.83 µM; at human recombinant BACE1 it was 0.0668 µM.

As to `COC[C@]12C[C@H]1[C@@](C)(c1cc(NC(=O)c3ccc(OCC(F)(F)C(F)F)cn3)cc(F)c1F)N=C(N)S2` [Example 732, N-(3-((1S,5S,6S)-3-amino-1-(methoxymethyl)-5-methyl-2-thia-4-azabicyclo[4.1.0]hept-3-en-5-yl)-4,5-difluorophenyl)-5-(2,2,3,3-tetrafluoropropoxy)-2-pyridinecarboxamide], the IC50 on Recombinant Cat D is 600 µM; in assay [1], 0.034 µM; on human recombinant BACE2 it was 0.737 µM; at human recombinant BACE1, 0.00339 µM.

As for `C#CCOc1cnc2c(Nc3cc(F)c(F)c([C@@]4(C)N=C(N)S[C@@]5(COC)C[C@H]54)c3)nccc2c1` [Example 733, N-(3-((1S,5S,6S)-3-amino-1-(methoxymethyl)-5-methyl-2-thia-4-azabicyclo[4.1.0]hept-3-en-5-yl)-4,5-difluorophenyl)-3-(2-propyn-1-yloxy)-1,7-naphthyridin-8-amine], the IC50 at Recombinant Cat D was 1520 µM; in assay [1] it was 0.014 µM; on human recombinant BACE2, 0.0642 µM; on human recombinant BACE1, 0.00638 µM.

Regarding `COC[C@]12C[C@H]1[C@@](C)(c1cc(NC(=O)c3cnc(OCC(F)(F)C(F)F)cn3)cc(F)c1F)N=C(N)S2` [Example 734, N-(3-((1S,5S,6S)-3-amino-1-(methoxymethyl)-5-methyl-2-thia-4-azabicyclo[4.1.0]hept-3-en-5-yl)-4,5-difluorophenyl)-5-(2,2,3,3-tetrafluoropropoxy)-2-pyrazinecarboxamide], the IC50 at Recombinant Cat D came to 2110 µM; in assay [1] it was 0.017 µM; on human recombinant BACE2, 0.188 µM; at human recombinant BACE1 it was 0.00173 µM.

`COC[C@]12C[C@H]1[C@@](C)(c1cc(Nc3nccc4cc(OCc5ncc(Cl)s5)cnc34)cc(F)c1F)N=C(N)S2` [Example 735, N-(3-((1S,5S,6S)-3-amino-1-(methoxymethyl)-5-methyl-2-thia-4-azabicyclo[4.1.0]hept-3-en-5-yl)-4,5-difluorophenyl)-3-((5-chloro-1,3-thiazol-2-yl)methoxy)-1,7-naphthyridin-8-amine]: the IC50 on Recombinant Cat D came to 1650 µM; in assay [1], 1.76 µM; on human recombinant BACE2, 0.978 µM; on human recombinant BACE1 it was 0.0412 µM.

Take `COC[C@]12C[C@H]1[C@@](C)(c1cc(Nc3nccc4cc(OCc5nc(Br)cs5)cnc34)cc(F)c1F)N=C(N)S2` [Example 736, N-(3-((1S,5S,6S)-3-amino-1-(methoxymethyl)-5-methyl-2-thia-4-azabicyclo[4.1.0]hept-3-en-5-yl)-4,5-difluorophenyl)-3-((4-bromo-1,3-thiazol-2-yl)methoxy)-1,7-naphthyridin-8-amine]: the IC50 came out at 151 µM on Recombinant Cat D, 1.07 µM in assay [1], 0.765 µM at human recombinant BACE2 and 0.0317 µM at human recombinant BACE1.
